Reference: US20100173983A1, “METHOD FOR INDUCING AUTOPHAGY” (priority 2007, published 2010)

How the values were obtained:
endonuclease G = assay: Immunohistology of xenograft tumour sections, endonuclease G; assay type: in vivo, SCID mice; conditions: 100 mg/kg, compared to control
Method: FIG. 11. Cpd 1 markers of autophagy observed in in vitro studies are also present in vivo. […] T-S6K served as loading control.
In vivo studies using tumour-bearing mice were conducted to further confirm that Cpd 1 induces programmed cell death via an autophagic process. SCID mice bearing chemoresistant epithelial ovarian cancer (EOC) xenografts derived from a primary cell culture of a patient's ascites were administered with increasing doses of Cpd 1 by intraperotineal injection resulting in reductions in both tumor volume and tumor weight (data not shown). Representative tumours excised from these mice and tumour-bearing mice administered vehicle control were then fixed, sectioned and subjected to immunohistopathology analysis using an α-enodonuclease G directed monoclonal antibody. Tumor samples were blocked with either 10% horse or goat serum in PBS for 1 hour at room temperature. Following three washes with PBS, samples were incubated overnight at 4° C. with either the anti-EndoG (LifeSpan Bioscience) antibody or mouse IgG1 isotype as negative controls. After three washes with PBS, specific staining was detected by incubating with a peroxidase-conjugated horse anti-mouse antibody (1:1000 dilution) for 1 hour followed by a five-minute incubation with DAB substrate (Vector Laboratories). […]

Beclin 1 = assay: Western blot of R-182 mitochondrial extracts, Beclin 1; assay type: cell-based, Human; conditions: R-182 cells, 5 μg/ml over 24 hr
Excerpt: (§1) FIG. 8. Molecular evidence of autophagic cell death in R-182 ovarian cancer cells induced by Cpd 1. […] B, Beclin 1 binds to Bcl-2. Immunoprecipitation study using mitochondrial preparations of cells pre-treated with Cpd 1 as stated in A, and subjected to beclin 1 immunoprecitation. Immunoprecipitated fractions were washed in PBS, subjected to SDS-PAGE, blotted and then probed with a mouse anti-Bcl-2 antibody. Actin and Topo-1 were used as loading control. C, Depolarized cells resulting from over-expression of Bax and Beclin 1 following administration of Cpd 1. Cells were treated with Cpd 1 as described in A, pelleted and washed in HBSS and the cell pellet resuspended in the reaction buffer for JC-1 (Biovision, Inc. MitoCapture™ K250-100). HBSS-washed cells were analysed by flow cytometry (λexcit=488 nm and (λemit=530 nm for green fluorescence (depolarized) or 590 nm for red fluorescence (polarized). 10,000 gated events were measured with a BD FACScalibur. Results were expressed as mean±standard deviation (n=3).
(§2) After treatment with Cpd 1, protein was extracted from cells and measured as previously described (Kamsteeg et al., 2003). For separation of the cytoplasmic and mitochondrial fractions, cell pellets were processed using the ApoAlert Cell Fractionation kit (Promega) according to the manufacturer's instructions. […]

Bax = assay: Western blot of R-182 mitochondrial extracts, Bax; assay type: cell-based, Human; conditions: R-182 cells, 5 μg/ml over 24 hr
Excerpt: as §1, §2

LC3-II = assay: Western blot of R-182 cytoplasmic preparations, LC3-II; assay type: cell-based, Human; conditions: R-182 cells, 5 μg/ml over 24 hr
Excerpt: as §1, §2

[1] = tested on: CP70 ovarian cancer cells; assay: DNA fragmentation, PI/Hoechst FACS analysis; assay type: cell-based, Human; conditions: 10 μM for 24 hr; 1.4% in the absence of Cpd 1
Method: FIG. 7. Cpd 1 induces DNA degradation in CP70 cells. A, No treatment control. B, Cpd 1-treated cells. CP70 ovarian cancer cells were incubated with 10 μg/ml Cpd 1 for […] and fixed. Cells were co-stained with propidium iodide and Hoechst A and incidence of PI labelled cells indicative of DNA degradation in quandrant 2 was assessed by FACS analysis.
The inventors then determined whether treatment with Cpd 1 induced DNA fragmentation. Ovarian cancer cells were treated with Cpd 1 (10 μM) for 24 hr and gently trypsinised. Trypsinized cells were combined with non-adherent cells, rinsed once in medium containing serum and then resuspended at a concentration of 10^7 cells/ml in PBS. Cells were then fixed by adding 0.5 ml of cell suspension to 4.5 ml 70% ice-cold ethanol. After 2 h on ice, cells were pelleted and the ethanol was thoroughly decanted. The cell pellet was rinsed in 5 ml PBS, centrifuged, resuspended in 1 ml of PBS containing 0.1% Triton X-100, 0.2 mg/ml DNase-free RNase A, and 20 μg/ml propidium iodide (PI) and 2 μg/ml hoechst-A and incubated at 37° C. for 15 min before FACS analysis. Cells were analyzed using Becton Dickinson Cell Quest FACStation software (version 3.0.1) operating a Becton Dickinson FACSCalibur FACS machine. Gating was used to remove debris and doublets before collection. Results were quantitated using ModFit LT (1999; Topsham, Me.: Verity Software House, Inc.). […]

caspase 8 = assay: Caspase-Glo 8 assay in R182 cells; assay type: cell-based, Human; conditions: R182 ovarian cancer explants; dose response and duration of exposure (5 μg/ml, 0-25 hr)
Method: FIG. 4. Comparative induction of caspase 8 in R182 ovarian cancer explants by Cpd 1 and dehydroequol using either dose response (A) or duration of exposure (B). Caspase 8 activity was assessed using the Caspase-Glo 8 assay.
For caspase activity assays, 10 μg of protein in 50 μL total volume was mixed with 50 μL of equilibrated Caspase-Glo 3/7, 8, or 9 reagents (Promega). After incubating at room temperature for 1 hour, luminescence was measured using TD 20/20 Luminometer (Turner Designs, Sunnyvale, Calif.). Blank values were subtracted and fold-increase in activity was calculated based on activity measured from untreated cells. Each sample was measured in triplicate.

Beclin 1 / Bcl-2 = assay: Beclin 1 immunoprecipitation probed with anti-Bcl-2; assay type: cell-based, Human; conditions: mitochondrial preparations of Cpd 1 treated cells
Excerpt: as §1
To measure membrane depolarization cells were treated with Cpd 1 as described above, pelleted and washed in HBSS and the cell pellet resuspended in the reaction buffer for JC-1 (Biovision, Inc. MitoCapture™ K250-100). HBSS-washed cell pellets were resuspended in 1 mL aliquots of the Mitocapture reagent buffer with 1 μL of JC-1 solution in DMSO (Biovision).

COc1ccc([C@H]2c3ccc(O)c(C)c3OC[C@H]2c2ccc(O)cc2)cc1 (stereo in doubt) [Cpd 1, 3-(4-hydroxyphenyl)-4-(4-methoxyphenyl)-8-methylchroman-7-ol]
expression of nuclear endonuclease G in tumour sections (endonuclease G): increased | mitochondrial content of beclin-1 (Beclin 1): transiently increased | expression of Bax in mitochondrial extracts (Bax): markedly upregulated over time | LC3-II expression (LC3-II): increased over time | DNA fragmentation [1]: 95% | caspase 8 activity (caspase 8): did not induce caspase 8 activity | Beclin and Bcl-2 co-precipitation (Beclin 1 / Bcl-2): co-precipitate at higher concentrations compared to control
